Data from ChEMBL document CHEMBL4425153, “Matched and mixed cap derivatives in the tetracyclic indole class of HCV NS5A inhibitors” (Bioorg Med Chem Lett, 2016).
Where a chain is given by its changes, count along the chain named.

Experiments:
[1] = test system: T1, Nonstructural protein 5A (Hepatitis C virus), Q5L478 [Y93H]; test: Inhibition of HCV genotype 1a NS5A Y93H mutant assessed as reduction in viral RNA level by cell based real time PCR method; settings: Hepatitis C virus subtype 1a
T1 sequence (whole entry): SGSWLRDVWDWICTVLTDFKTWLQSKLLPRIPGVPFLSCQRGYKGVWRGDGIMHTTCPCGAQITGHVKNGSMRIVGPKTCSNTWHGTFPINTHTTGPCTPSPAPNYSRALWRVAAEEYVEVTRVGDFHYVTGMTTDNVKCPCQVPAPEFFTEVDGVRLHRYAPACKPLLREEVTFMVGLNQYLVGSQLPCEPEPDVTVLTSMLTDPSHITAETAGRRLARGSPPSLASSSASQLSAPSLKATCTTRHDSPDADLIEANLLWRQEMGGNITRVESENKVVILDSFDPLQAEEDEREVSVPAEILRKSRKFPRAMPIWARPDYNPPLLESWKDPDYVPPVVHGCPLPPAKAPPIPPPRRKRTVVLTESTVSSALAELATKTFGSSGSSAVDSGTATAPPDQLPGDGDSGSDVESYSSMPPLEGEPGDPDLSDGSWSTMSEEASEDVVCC

[2] = test system: Nonstructural protein 5A (Hepatitis C virus), Q5L478 [UNDEFINED MUTATION]; test: Inhibition of HCV genotype 1a NS5A L31V mutant assessed as reduction in viral RNA level by cell based real time PCR method; settings: Hepatitis C virus subtype 1a
[3] = target: T2, Nonstructural protein 5A (Hepatitis C virus) (UniProt Q5L478); test: Inhibition of wild type HCV genotype 2b NS5A assessed as reduction in viral RNA level by cell based real time PCR method; settings: Hepatitis C virus subtype 2b
T2 sequence (whole entry): T1 sequence (whole entry) with H93Y

[4] = target: T2, Nonstructural protein 5A (Hepatitis C virus); test: Inhibition of wild type HCV genotype 1a NS5A assessed as reduction in viral RNA level by cell based real time PCR method; settings: Hepatitis C virus subtype 1a

Row | Structure (SMILES) | EC90 [1] | EC90 [2] | EC90 [3] | EC90 [4]
1 | CN(C)[C@@H](C(=O)N1CCC[C@H]1c1ncc(-c2ccc3c(c2)O[C@@H](c2ccccc2)n2c-3cc3cc(-c4cnc([C@@H]5CCCN5C(=O)[C@@H](c5ccccc5)N(C)C)[nH]4)ccc32)[nH]1)c1ccccc1 | > 100 nM | 2.1 nM | 0.87 nM | 0.3 nM
2 | CC[C@H](C)[C@H](NC(=O)OC)C(=O)N1CCC[C@H]1c1ncc(-c2ccc3c(c2)O[C@@H](c2ccccc2)n2c-3cc3cc(-c4cnc([C@@H]5CCCN5C(=O)[C@@H](NC(=O)OC)C(C)C)[nH]4)ccc32)[nH]1 | 77 nM | 4.3 nM | 50 nM | 0.06 nM
3 | O=C([C@@H](c1ccccc1)N1CCCC1)N1CCC[C@H]1c1ncc(-c2ccc3c(c2)O[C@@H](c2ccccc2)n2c-3cc3cc(-c4cnc([C@@H]5CCCN5C(=O)[C@@H](c5ccccc5)N5CCCC5)[nH]4)ccc32)[nH]1 | > 100 nM | 3.9 nM | 13 nM | 3.9 nM
4 | COC(=O)N[C@H](C(=O)N1CCC[C@H]1c1ncc(-c2ccc3c(c2)O[C@@H](c2ccccc2)n2c-3cc3cc(-c4cnc([C@@H]5CCCN5C(=O)[C@@H](NC(=O)OC)C5CCC(F)(F)CC5)[nH]4)ccc32)[nH]1)C1CCC(F)(F)CC1 | 39 nM | 0.65 nM | 77 nM | 0.03 nM
5 | COC(=O)N[C@H](C(=O)N1CCC[C@H]1c1ncc(-c2ccc3c(c2)O[C@@H](c2ccccc2)n2c-3cc3cc(-c4cnc([C@@H]5CCCN5C(=O)[C@@H](NC(=O)OC)[C@@H](C)O)[nH]4)ccc32)[nH]1)[C@@H](C)O | > 100 nM | > 100 nM | > 100 nM | > 1 nM
6 | O=C([C@H]1CCCO1)N1CCC[C@H]1c1ncc(-c2ccc3c(c2)O[C@@H](c2ccccc2)n2c-3cc3cc(-c4cnc([C@@H]5CCCN5C(=O)[C@H]5CCCO5)[nH]4)ccc32)[nH]1 | > 100 nM | > 100 nM | > 100 nM | 1 nM
7 | COC(=O)N[C@H](C(=O)N1CCC[C@H]1c1ncc(-c2ccc3c(c2)O[C@@H](c2ccccc2)n2c-3cc3cc(-c4cnc([C@@H]5CCCN5C(=O)[C@@H](NC(=O)OC)[C@@H](C)OC)[nH]4)ccc32)[nH]1)[C@@H](C)OC | > 100 nM |  | 17 nM | 0.019 nM
8 | COC(=O)NC1(C(=O)N2CCC[C@H]2c2ncc(-c3ccc4c(c3)O[C@@H](c3ccccc3)n3c-4cc4cc(-c5cnc([C@@H]6CCCN6C(=O)C6(NC(=O)OC)CCOCC6)[nH]5)ccc43)[nH]2)CCOCC1 | > 100 nM | > 100 nM | > 100 nM | 1.4 nM
9 | COC(=O)N[C@@H](C)C(=O)N1CCC[C@H]1c1ncc(-c2ccc3c(c2)O[C@@H](c2ccccc2)n2c-3cc3cc(-c4cnc([C@@H]5CCCN5C(=O)[C@H](C)NC(=O)OC)[nH]4)ccc32)[nH]1 | > 100 nM | 6.4 nM | > 100 nM | 0.042 nM
10 | COC(=O)N[C@H](C(=O)N1CCC[C@H]1c1ncc(-c2ccc3c(c2)O[C@@H](c2ccccc2)n2c-3cc3cc(-c4cnc([C@@H]5CCCN5C(=O)[C@@H](NC(=O)OC)C5CCCCC5)[nH]4)ccc32)[nH]1)C1CCCCC1 | > 100 nM | 11 nM | > 100 nM | 0.1 nM
11 | COC(=O)N[C@H](C(=O)N1CCC[C@H]1c1ncc(-c2ccc3c(c2)O[C@@H](c2ccccc2)n2c-3cc3cc(-c4cnc([C@@H]5CCCN5C(=O)[C@@H](NC(=O)OC)C5CCOCC5)[nH]4)ccc32)[nH]1)C(C)C | 11 nM | 0.6 nM | 9 nM | 0.06 nM
12 | COC(=O)N[C@H](C(=O)N1CCC[C@H]1c1nc(-c2ccc3c(c2)O[C@@H](c2ccccc2)n2c-3cc3cc(-c4c[nH]c([C@@H]5CCCN5C(=O)[C@@H](NC(=O)OC)C(C)C)n4)ccc32)c[nH]1)C(C)C | 28 nM | 1 nM | 11 nM | 0.006 nM
13 | COC(=O)N[C@H](C(=O)N1CCC[C@H]1c1ncc(-c2ccc3c(c2)cc2n3[C@H](c3ccccc3)Oc3cc(-c4cnc([C@@H]5CCCN5C(=O)[C@@H](NC(=O)OC)[C@@H](C)OC)[nH]4)ccc3-2)[nH]1)C(C)C | 50 nM | 1.1 nM | 5 nM | 0.062 nM
14 | CC[C@H](NC(=O)OC)C(=O)N1CCC[C@H]1c1ncc(-c2ccc3c(c2)O[C@@H](c2ccccc2)n2c-3cc3cc(-c4cnc([C@@H]5CCCN5C(=O)[C@H](CC)NC(=O)OC)[nH]4)ccc32)[nH]1 | > 100 nM | 1.6 nM | 65 nM | 0.016 nM
15 | COC(=O)N[C@H](C(=O)N1CCC[C@H]1c1ncc(-c2ccc3c(c2)O[C@@H](c2ccccc2)n2c-3cc3cc(-c4cnc([C@@H]5CCCN5C(=O)C5(NC(=O)OC)CCCCC5)[nH]4)ccc32)[nH]1)C(C)C | > 100 nM | 14.7 nM | > 100 nM | 0.035 nM
16 | CN(C)[C@@H](C(=O)N1CCC[C@H]1c1ncc(-c2ccc3c(c2)O[C@@H](c2ccccc2)n2c-3cc3cc(-c4cnc([C@@H]5CCCN5C(=O)[C@@H](c5ccc(F)cc5)N(C)C)[nH]4)ccc32)[nH]1)c1ccc(F)cc1 | > 100 nM | > 100 nM | > 100 nM | 0.98 nM
17 | COC(=O)N[C@@H](CC1CCOCC1)C(=O)N1CCC[C@H]1c1ncc(-c2ccc3c(c2)cc2n3[C@H](c3ccccc3)Oc3cc(-c4cnc([C@@H]5CCCN5C(=O)[C@@H](NC(=O)OC)C(C)C)[nH]4)ccc3-2)[nH]1 | 24 nM | 0.33 nM | 8.9 nM | 0.014 nM
18 | COC(=O)N[C@H](C(=O)N1CCC[C@H]1c1ncc(-c2ccc3c(c2)O[C@@H](c2ccccc2)n2c-3cc3cc(-c4cnc([C@@H]5CCCN5C(=O)[C@@H](NC(=O)OC)C5CC5)[nH]4)ccc32)[nH]1)C1CC1 | > 100 nM | > 100 nM | > 100 nM | 0.028 nM
19 | CCN(CC)[C@@H](C(=O)N1CCC[C@H]1c1ncc(-c2ccc3c(c2)O[C@@H](c2ccccc2)n2c-3cc3cc(-c4cnc([C@@H]5CCCN5C(=O)[C@@H](c5ccccc5)N(CC)CC)[nH]4)ccc32)[nH]1)c1ccccc1 | > 100 nM | 0.6 nM | 3.1 nM | 0.27 nM
20 | CCN(CC)[C@@H](C(=O)N1CCC[C@H]1c1ncc(-c2ccc3c(c2)cc2n3[C@H](c3ccccc3)Oc3cc(-c4cnc([C@@H]5CCCN5C(=O)[C@@H](NC(=O)OC)C(C)C)[nH]4)ccc3-2)[nH]1)c1ccccc1 | 44 nM |  | 4 nM | 0.045 nM
21 | COC(=O)N[C@H](C(=O)N1CCC[C@H]1c1ncc(-c2ccc3c(c2)O[C@@H](c2ccccc2)n2c-3cc3cc(-c4cnc([C@@H]5CCCN5C(=O)[C@@H](NC(=O)OC)[C@@H](C)OC)[nH]4)ccc32)[nH]1)C(C)C | 54 nM |  | 35 nM | 0.039 nM
22 | CC[C@H](C)[C@H](NC(=O)OC)C(=O)N1CCC[C@H]1c1ncc(-c2ccc3c(c2)O[C@@H](c2ccccc2)n2c-3cc3cc(-c4cnc([C@@H]5CCCN5C(=O)[C@@H](NC(=O)OC)[C@@H](C)CC)[nH]4)ccc32)[nH]1 | > 100 nM | 1.8 nM | > 100 nM | 0.011 nM
23 | COC(=O)N[C@@H](C(=O)N1CCC[C@H]1c1ncc(-c2ccc3c(c2)O[C@@H](c2ccccc2)n2c-3cc3cc(-c4cnc([C@@H]5CCCN5C(=O)[C@H](NC(=O)OC)C5CCOCC5)[nH]4)ccc32)[nH]1)C1CCOCC1 | > 100 nM | > 100 nM | > 100 nM | 8.6 nM
24 | COC(=O)N[C@@H](CC1CCOCC1)C(=O)N1CCC[C@H]1c1ncc(-c2ccc3c(c2)O[C@@H](c2ccccc2)n2c-3cc3cc(-c4cnc([C@@H]5CCCN5C(=O)[C@H](CC5CCOCC5)NC(=O)OC)[nH]4)ccc32)[nH]1 | 40 nM | 0.77 nM | 18 nM | 0.1 nM
25 | COC(=O)N[C@H](C(=O)N1CCC[C@H]1c1ncc(-c2ccc3c(c2)O[C@@H](c2ccccc2)n2c-3cc3cc(-c4cnc([C@@H]5CCCN5C(=O)[C@@H](NC(=O)OC)C5CCC(F)(F)CC5)[nH]4)ccc32)[nH]1)C(C)C | 34 nM | 0.89 nM | 23 nM | 0.018 nM
26 | COC(=O)N[C@H](C(=O)N1CCC[C@H]1c1ncc(-c2ccc3c(c2)O[C@@H](c2ccccc2)n2c-3cc3cc(-c4cnc([C@@H]5CCCN5C(=O)[C@@H](NC(=O)OC)C5CCCC5)[nH]4)ccc32)[nH]1)C1CCCC1 | > 100 nM | 4.1 nM | 52 nM | 0.014 nM
